As usually defined, the IC50 is the point on the concentration scale where inhibition reaches its midpoint.

The first experiment is described as follows: Antagonist activity at CCR2 in human PBMC assessed as inhibition of MCP1-induced chemotaxis.
On to `CCC[C@H](O)[C@H](CNCc1ccc(C)cc1C)NC(=O)CNC(=O)c1cc(N)cc(C(F)(F)F)c1`, for which the IC50 came to 20 nM.
Still for that read-out and setting: next, `CCC[C@H](O)[C@H](CNCc1ccc(C)cc1C)NC(=O)CNC(=O)c1cc(C(F)(F)F)ccc1N`: 32 nM.
Consider `CCC[C@H](O)[C@H](CNCc1ccc(C)cc1C)NC(=O)CNC(=O)c1cc(C(F)(F)F)ccc1NC(=O)OC(C)(C)C`, for which the IC50 is 17 nM.
Take `CCC[C@H](O)[C@H](CNCc1ccc(C)cc1C)NC(=O)CNC(=O)c1cc(C(F)(F)F)ccc1NC(=O)NC`: the 50% inhibitory concentration (IC50) stood at 5 nM.
For `CCC[C@H](O)[C@H](CNCc1ccc(C)cc1C)NC(=O)CNC(=O)c1cc(C(F)(F)F)ccc1NC(=O)NCC`, the IC50 turned out to be 24 nM.
On the same count and under the same terms, next, `CCC[C@H](O)[C@H](CNCc1ccc(C)cc1C)NC(=O)CNC(=O)c1cc(C(F)(F)F)ccc1NC(=O)N1CCC1`: 4.3 nM; `CCC[C@H](O)[C@H](CNCc1ccc(C)cc1C)NC(=O)CNC(=O)c1cc(C(F)(F)F)ccc1NC(=O)N1CCCC1`: 5.2 nM; `CCC[C@H](O)[C@H](CNCc1ccc(C)cc1C)NC(=O)CNC(=O)c1cc(C(F)(F)F)ccc1NC(=O)N1CCOCC1`: 13 nM.
Turning to `CCC[C@H](O)[C@H](CNCc1ccc(C)cc1C)NC(=O)CNC(=O)c1cc(C(F)(F)F)ccc1NC(=O)N1CCNCC1`, the IC50 turned out to be 10 nM.
With `CCC[C@H](O)[C@H](CNCc1ccc(C)cc1C)NC(=O)CNC(=O)c1cc(C(F)(F)F)ccc1NC(C)C`, the IC50 was 9 nM.
The same measure, in the same setting: for `CCC[C@H](O)[C@H](CNCc1ccc(C)cc1C)NC(=O)CNC(=O)c1cc(C(F)(F)F)ccc1NC(C)(C)C` the value was 33 nM; for `CCC[C@H](O)[C@H](CNCc1ccc(C)cc1C)NC(=O)CNC(=O)c1cc(C(F)(F)F)ccc1NCc1ccccc1`, 7.2 nM; for `CCC[C@H](O)[C@H](CNCc1ccc(C)cc1C)NC(=O)CNc1n[nH]c2ccc(C(F)(F)F)cc12`, 74 nM.
With `CCC[C@H](O)[C@H](CNCc1ccc(C)cc1C)NC(=O)CC(=O)Nc1cccc(C(F)(F)F)c1`, the IC50 stood at 81 nM.
For the molecule `CCC[C@H](O)[C@H](CNCc1ccc(C)cc1C)NC(=O)CC(=O)Nc1cc(N)cc(C(F)(F)F)c1`, the IC50 stood at 14 nM.
`CCC[C@H](O)[C@H](CNCc1ccc(C)cc1C)NC(=O)CC(=O)Nc1cc(NC)cc(C(F)(F)F)c1`: the IC50 was 23 nM.
On to `CCC[C@H](O)[C@H](CNCc1ccc(C)cc1C)NC(=O)CC(=O)Nc1cc(NCC)cc(C(F)(F)F)c1`, for which the IC50 came to 12 nM.

Another experiment can be described thus: Antagonist activity at CCR2 in mouse monocytes assessed as inhibition of MCP1-induced chemotaxis.
Turning to `CCC[C@H](O)[C@H](CNCc1ccc(C)cc1C)NC(=O)CNC(=O)c1cc(C(F)(F)F)ccc1NC(=O)NCC`, the IC50 stood at 4 nM.

Source of the values: BindingDB's records for doi:10.1016/j.bmcl.2012.03.007 (Bristol-Myers Squibb, 2012).
